For three molecules, IC50 results are on record in patent US7759331B2, “Pyridine-containing macroheterococylic compounds as kinase inhibitors” (Janssen Pharmaceutica NV, priority 2006, dated 2010).

Several values for one entry are separate records, joined by “and”; a condition that tells them apart may be missing. Equal entries are not always repeated.

GSK3β(h), sequence (P49841 whole entry): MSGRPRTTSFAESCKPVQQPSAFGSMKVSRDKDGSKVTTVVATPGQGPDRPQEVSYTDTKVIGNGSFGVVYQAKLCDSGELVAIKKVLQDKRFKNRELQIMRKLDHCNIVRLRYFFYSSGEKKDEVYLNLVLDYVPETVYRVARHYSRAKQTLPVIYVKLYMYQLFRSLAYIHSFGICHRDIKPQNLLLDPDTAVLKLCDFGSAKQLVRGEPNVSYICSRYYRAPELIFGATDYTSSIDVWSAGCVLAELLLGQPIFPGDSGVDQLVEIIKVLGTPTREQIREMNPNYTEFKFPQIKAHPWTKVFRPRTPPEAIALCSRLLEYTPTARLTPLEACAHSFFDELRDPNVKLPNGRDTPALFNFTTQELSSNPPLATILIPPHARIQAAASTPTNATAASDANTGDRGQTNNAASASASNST

For the experiment, the target named is GSK3β(h) (Homo sapiens, UniProt P49841). Briefly: Glycogen Synthase Kinase-3 Assay. Format: biochemical. Conditions: assay run three times for each compound; each run's value listed. As for the experimental part:
Compounds were tested for the ability to inhibit GSK-3β protein. Briefly, in a final reaction volume of 25 μL, GSK-3β (h) (5-10 mU) was incubated with 8 mM MOPS pH 7.0, 0.2 mM EDTA, 20 μM […](p)EDEEE (phospho GS2 peptide), 10 mM Mg Acetate and [γ-^33P-ATP] (specific activity approx. 500 cpm/pmol, concentration as required). The reaction was initiated by the addition of the MgATP mix. After incubation for 40 minutes at room temperature, the reaction was stopped by the addition of 5 μL of a 3% phosphoric acid solution. 10 μL of the reaction was then spotted onto a P30 filtermat and washed three times for 5 minutes in 50 mM phosphoric acid and once in methanol prior to drying and scintillation counting.
The GSK-3β assay was run three times for each compound.
Regarding `CN(C)c1nc2ccc1CCCn1cc(c3ccccc31)C1=C(C(=O)NC1=O)c1cn(c3ccccc13)CCC2` [Cpd 3, 31-(dimethylamino)-5,15,25,30-tetraazaheptacyclo[27.2.2.1^5,12.1^18,25.0^6,11.0^13,17.0^19,24]pentatriaconta-1(31),6,8,10,12(35),13(17),18(34),19,21,23,29,32-dodecaene-14,16-dione], the IC50 is 0.0055 µM and 0.0529 µM and 0.0521 µM.
Consider `O=C1NC(=O)C2=C1c1cn(c3ccccc13)CCCCc1ccc(c(N3CCCC3)n1)CCCCn1cc2c2ccccc21` [Cpd 5, 33-pyrrolidin-1-yl-6,16,26,32-tetraazaheptacyclo[29.2.2.1^6,13.1^19,26.0^7,12.0^14,18.0^20,25]heptatriaconta-1(33),7,9,11,13(37),14(18),19(36),20,22,24,31,34-dodecaene-15,17-dione], for which the IC50 is 0.024 µM and 0.0193 µM and 0.0298 µM.
Regarding `Cc1ccc(-c2cc3cc(n2)CCCn2cc(c4ccccc42)C2=C(C(=O)NC2=O)c2cn(c4ccccc24)CCC3)cc1` [Cpd 4, 20-(4-methylphenyl)-4,14,19,26-tetraazaheptacyclo[24.6.1.1^7,14.1^18,22.0^2,6.0^8,13.0^27,32]pentatriaconta-1(33),2(6),7(35),8,10,12,18(34),19,21,27,29,31-dodecaene-3,5-dione], the IC50 was 0.01 µM and 0.021 µM and 0.0535 µM.

What is called IC50 is the midpoint of a concentration-inhibition curve. A high value points to lower potency.
